Reference: patent US20100204146A1, “Treatment of Oestrogen Dependant Conditions in Pre-menopausal Women” (PregLem S.A., priority 2007, published 2010)

How the values were obtained:
[1] = test system: person with peritoneal and ovarian endometriosis; experiment: Endometriosis patient treated with STS-I, then with added progestin; format: in vivo, human
Procedure: A nulliparous person was diagnosed with a moderate/severe peritoneal and ovarian endometriosis during a laparoscopy performed for chronic pelvic pain, dyspareunia and infertility. Despite careful debulking of the lesions during the laparoscopy, the symptoms persisted and medical treatment is indicated. A STS-I, E2MATE is administered at 1.0 mg/week.

[2] = test system: female Cynomolgus monkeys (Macaca fascicularis); experiment: 39-week intragastric study in female Cynomolgus monkeys: impact on ovarian cycle and function, microscopic status at necropsy; conditions: for Ovary: Absence of corpora lutea (% of animals) / Ovary: Absence of corpora lutea (no. of animals) / Ovary: Cyst (% of animals) / Ovary: Cyst (no. of animals) / Ovary: Increase in growing follicles (% of animals) / Ovary: Increase in growing follicles (no. of animals): 8 animals, after 39 weeks, necropsy; for menstrual cycle pattern: whole treatment period
Procedure: Three groups of eight female Cynomolgus monkeys (Macaca fascicularis) each were treated intragastrically over a period of approximately 39 weeks at daily doses of 0.2, 0.8 and 2.0 mg/kg of E2MATE using an application volume of 10 mL/kg. A fourth group (control) received an equivalent volume of the vehicle under the same experimental conditions. […] After 39 weeks of treatment, the microscopic status at necropsy was as follows:

[3] = target: T1, sulfatase activity present in eutopic and ectopic endometrium (Homo sapiens, UniProt P08842); conditions: in vitro; cited from earlier work
T1 construct: abolish the sulfatase activity present in eutopic and ectopic endometrium; host or cells: eutopic and ectopic endometrium (tissue)
T1 sequence (P08842 22-583): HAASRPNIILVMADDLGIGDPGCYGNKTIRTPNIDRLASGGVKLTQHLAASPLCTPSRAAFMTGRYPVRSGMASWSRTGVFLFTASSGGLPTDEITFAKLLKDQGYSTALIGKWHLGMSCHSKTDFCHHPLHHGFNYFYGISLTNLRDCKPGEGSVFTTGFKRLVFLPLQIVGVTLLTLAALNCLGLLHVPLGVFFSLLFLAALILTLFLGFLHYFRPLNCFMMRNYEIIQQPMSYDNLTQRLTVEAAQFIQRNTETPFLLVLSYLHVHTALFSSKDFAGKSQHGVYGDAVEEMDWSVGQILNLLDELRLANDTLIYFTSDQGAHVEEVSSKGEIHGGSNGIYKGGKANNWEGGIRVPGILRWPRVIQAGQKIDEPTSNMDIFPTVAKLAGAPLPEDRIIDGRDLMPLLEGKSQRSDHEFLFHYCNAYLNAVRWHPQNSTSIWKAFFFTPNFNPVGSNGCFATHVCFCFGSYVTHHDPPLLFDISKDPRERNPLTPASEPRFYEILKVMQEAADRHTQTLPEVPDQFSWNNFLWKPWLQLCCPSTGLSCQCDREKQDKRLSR

metastatic breast cancer = experiment: Metastatic breast cancer patient treated with STS-I with GnRH agonist maintained; format: in vivo, human; conditions: daily administration
Procedure: In a person, a metastatic breast cancer is progressing despite administration of aromatase inhibitor and a GnRH agonist. […] STX64, a STS-I from the coumate family of compound is administered on a daily basis.

[4] = E2MATE 1.0 mg/week associated with norgestrel 0.1 mg/day

C[C@]12CC[C@@H]3c4ccc(OS(N)(=O)=O)cc4CC[C@H]3[C@@H]1CC[C@@H]2O [E2MATE, Estradiol sulfamate]
endometriosis symptoms ([1]; 1.0 mg/week, alone): partially relieved
serum estradiol (E2) ([1]; 1.0 mg/week, alone): fluctuating serum E2 in the hundred of pg range
vaginal bleeding ([1]; 1.0 mg/week, alone): irregular episodes of mild but painful vaginal bleeding
patient's symptoms [1, 4]: further improvement
serum estradiol levels and bleeding episode [1, 4]: reduction
animals became amenorrheic ([2]; 0.2 mg/kg daily, intragastric, treatment period): 2/8
Ovary: Absence of corpora lutea (% of animals) ([2]; 0.2 mg/kg dose group): (87.5%)
Ovary: Absence of corpora lutea (no. of animals) ([2]; 0.2 mg/kg dose group): 7
Ovary: Cyst (% of animals) ([2]; 0.2 mg/kg dose group): (12.5%)
Ovary: Cyst (no. of animals) ([2]; 0.2 mg/kg dose group): 1
Ovary: Increase in growing follicles (% of animals) ([2]; 0.2 mg/kg dose group): (50%)
Ovary: Increase in growing follicles (no. of animals) ([2]; 0.2 mg/kg dose group): 4
menstrual cycle pattern ([2]; 0.8 mg/kg daily, intragastric): persistent amenorrhea in most animals
Ovary: Absence of corpora lutea (% of animals) ([2]; 0.8 mg/kg dose group): (100%)
Ovary: Absence of corpora lutea (no. of animals) ([2]; 0.8 mg/kg dose group): 8
Ovary: Cyst (% of animals) ([2]; 0.8 mg/kg dose group): (12.5%)
Ovary: Cyst (no. of animals) ([2]; 0.8 mg/kg dose group): 1
Ovary: Increase in growing follicles (% of animals) ([2]; 0.8 mg/kg dose group): (12.5%)
Ovary: Increase in growing follicles (no. of animals) ([2]; 0.8 mg/kg dose group): 1
menstrual cycle pattern ([2]; 2.0 mg/kg daily, intragastric): persistent amenorrhea in most animals
Ovary: Absence of corpora lutea (% of animals) ([2]; 4.0 mg/kg dose group): (100%)
Ovary: Absence of corpora lutea (no. of animals) ([2]; 4.0 mg/kg dose group): 8
Ovary: Cyst (% of animals) ([2]; 4.0 mg/kg dose group): (0%)
Ovary: Cyst (no. of animals) ([2]; 4.0 mg/kg dose group): 0
Ovary: Increase in growing follicles (% of animals) ([2]; 4.0 mg/kg dose group): (50%)
Ovary: Increase in growing follicles (no. of animals) ([2]; 4.0 mg/kg dose group): 4

NS(=O)(=O)Oc1ccc2c3c(c(=O)oc2c1)CCCCC3 [STX64]
sulfatase activity in eutopic and ectopic endometrium [3]: abolish
follicular development (metastatic breast cancer): no follicular development is recorded
